# Source: US6168934A, “Oligosaccharide enzyme substrates and inhibitors: methods and compositions” (The Scripps Research Institute, priority 1998, dated 2001)
# Experiments:
# [1] = test system: Nc1ccn([C@@H]2O[C@H](COP(=O)(O)OP(=O)(O)OP(=O)(O)O)[C@@H](O)[C@H]2O)c(=O)n1; assay: purified protein, by the assay type; conditions: other: pH 9.0, 37° C.
# Experimental: (§10) The activity of the native or the modified CMP-NeuAc synthetase was assayed using a thiobarbituric acid method described by Vann et al., J. Biol. Chem., 262:17556 (1987). […] After the mixture was incubated at 37° C. for 30 minutes, 50 mL of 1.6 M NaBH4 was added to destroy excess NeuAc, and the mixture was heated at room temperature for an additional 15 minutes. The mixture was then put in the ice bath and 50 mL of H3 PO4 were added to destroy NaBH4.
# (§11) The resulting mixture was kept at zero degrees C for five minutes then incubated at 37° C. for 10 minutes to cleave the phosphoester bond of the formed CMP-NeuAc. The free NeuAc was oxidized with 50 mL of 0.2 M NaIO4 at room temperature for 10 minutes, and 400 mL of 4 percent NaAsO2 in 0.5 N HCl were added. […] After the solution was cooled, 1 mL of the solution was taken out and mixed with 1 mL of cyclohexanone. That mixture was shaken and centrifuged, and the upper layer was taken for measurement at 549 nm (e=4.11 mM^-1 cm^-1).
# (§12) where A is [CTP], B is [NeuAc], Ka and Kb are the Michaelis constants for CTP and NeuAc, respectively, and Kia is the dissociation constant (or inhibition constant) for CTP.
# [2] = molecular target: β-galactosidase (EC 3.2.1.23 from E. coli) (Escherichia coli, UniProt P00722); assay: Inhibition of β-galactosidase hydrolysis of p-nitrophenyl β-galactoside; assay type: biochemical; conditions: p-nitrophenyl β-galactoside hydrolysed at the same rate with and without azasugar; concentration not given
# Sequence of β-galactosidase (EC 3.2.1.23 from E. coli) (P00722 2-1024): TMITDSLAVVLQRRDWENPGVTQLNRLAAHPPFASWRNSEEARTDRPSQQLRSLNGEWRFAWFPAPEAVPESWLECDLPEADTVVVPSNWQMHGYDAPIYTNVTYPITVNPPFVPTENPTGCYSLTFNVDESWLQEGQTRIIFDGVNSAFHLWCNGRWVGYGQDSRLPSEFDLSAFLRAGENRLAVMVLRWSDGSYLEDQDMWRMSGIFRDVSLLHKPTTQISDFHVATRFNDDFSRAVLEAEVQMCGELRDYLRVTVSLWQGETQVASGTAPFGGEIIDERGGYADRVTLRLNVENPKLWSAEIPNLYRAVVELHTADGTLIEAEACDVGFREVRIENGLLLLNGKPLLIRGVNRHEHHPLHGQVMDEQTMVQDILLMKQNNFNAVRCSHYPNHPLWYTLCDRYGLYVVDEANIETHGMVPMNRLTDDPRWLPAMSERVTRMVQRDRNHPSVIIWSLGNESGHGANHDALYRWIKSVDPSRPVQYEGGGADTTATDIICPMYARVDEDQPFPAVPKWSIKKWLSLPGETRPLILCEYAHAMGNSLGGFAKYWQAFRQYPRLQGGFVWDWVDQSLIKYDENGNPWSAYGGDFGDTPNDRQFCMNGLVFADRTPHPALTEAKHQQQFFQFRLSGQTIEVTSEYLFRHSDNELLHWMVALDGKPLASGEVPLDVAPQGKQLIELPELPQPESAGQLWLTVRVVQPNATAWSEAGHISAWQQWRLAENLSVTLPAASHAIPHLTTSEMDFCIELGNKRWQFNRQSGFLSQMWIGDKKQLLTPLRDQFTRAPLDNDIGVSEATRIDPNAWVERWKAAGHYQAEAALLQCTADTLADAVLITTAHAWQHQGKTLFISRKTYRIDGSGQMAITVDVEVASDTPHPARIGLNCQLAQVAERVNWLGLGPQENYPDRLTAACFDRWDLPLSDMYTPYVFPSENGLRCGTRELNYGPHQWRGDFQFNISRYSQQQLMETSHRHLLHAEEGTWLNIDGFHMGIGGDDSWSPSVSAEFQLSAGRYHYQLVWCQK
# From the text: Not all of the monosaccharide acceptors of the present invention are suitable substrates for β-galactosidase. For example, when Compound 3 or 4 from Table 2 are used as a substrate, no product was obtained.
# [3] = molecular target: T1, fucosyl α1,3/1,4 transferase (FucT; EC 2.4.1.65), recombinant (Homo sapiens, UniProt P21217); assay: Fucosyltransferase inhibition studies (IC50); assay type: biochemical; conditions: 2 mM N-acetyllactosamine; for inhibitory effect: up to concentrations of 50 mg/mL
# T1 construct: gift of Dr. J. B. Lowe, University of Michigan
# T1 sequence (P21217 1-361): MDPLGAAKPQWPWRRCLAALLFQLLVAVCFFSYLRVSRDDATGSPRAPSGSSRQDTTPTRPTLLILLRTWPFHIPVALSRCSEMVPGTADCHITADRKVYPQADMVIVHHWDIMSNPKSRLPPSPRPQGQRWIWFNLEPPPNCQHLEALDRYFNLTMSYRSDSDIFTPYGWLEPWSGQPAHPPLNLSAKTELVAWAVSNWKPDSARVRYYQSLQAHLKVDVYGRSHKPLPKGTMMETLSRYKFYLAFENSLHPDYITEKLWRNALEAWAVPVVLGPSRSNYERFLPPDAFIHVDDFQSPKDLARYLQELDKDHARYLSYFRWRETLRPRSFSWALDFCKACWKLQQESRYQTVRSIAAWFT
# Experimental: For other studies, such as those using a recombinant fucosylα1,3/4transferase (EC 2.4.1.65) whose results are shown in Table 1a, a stock mixture containing 0.25 mM ^14 C-GDP-fucose (5000 cpm/μL), 6.25 mM ATP, 25 mM MnCl2 are 62.5 mM cacodylate buffer, pH 6.2, was admixed fresh on the day of use, and stored on ice. To that solution, Fuc T was added immediately before use, and the reaction was initiated by the combination of 16 μL of that mixture with 4 μL of 100 mM acceptor substrate. The resulting admixture was then incubated at 37° C. for 30-240 minutes, depending upon the acceptor substrate (reactant compound) under study.
# In this equation, m=slope and b=y-intercept.
# Percent inhibition=m([inhibitor])+b equation 2
# [4] = test system: CC(=O)N[C@H]1[C@H]([C@H](O)[C@H](O)CO)OC(O)(C(=O)O)C[C@@H]1O; assay: Kinetic studies of modified (tagged) CMP-NeuAc synthetase; assay type: biochemical, E. coli; conditions: other: pH 9.0, 37° C.
# Experimental: (§1) The construction of plasmid CMPSIL-1, which contains the modified CMP-NeuAc synthetase gene (Example 2), was accomplished by the method of Ichikawa et al., J. Am. Chem. Soc., 113:4698 (1991). The CMP-NeuAc synthetase gene was fused with the decapeptide tag sequence Tyr-Pre-[…](SEQ ID NO:3) at the C-terminus, cloned into a lambda ZAP™ vector at EcoRI and XbaI sites and overexpressed in E. coli Sure strain.
# (§2) The activity of the native or the modified CMP-NeuAc synthetase was assayed using a thiobarbituric acid method described by Vann et al., J. Biol. Chem., 262:17556 (1987). Briefly, the enzyme was added to a […] buffer containing 5.5 mM CTP, 2.8 mM N-acetylneuraminic acid, 0.2 M Tris, 20 mM MgCl2 and 0.2 mM DTT, pH 9.0, to form a mixture. After the mixture was incubated at 37° C. for 30 minutes, 50 mL of 1.6 M NaBH4 was added to destroy excess NeuAc, and the mixture was heated at room temperature for an additional 15 minutes. The mixture was then put in the ice bath and 50 mL of H3 PO4 were added to destroy NaBH4.
# (§3) The resulting mixture was kept at zero degrees C for five minutes then incubated at 37° C. for 10 minutes to cleave the phosphoester bond of the formed CMP-NeuAc. The free NeuAc was oxidized with 50 mL of 0.2 M NaIO4 at room temperature for 10 minutes, and 400 mL of 4 percent NaAsO2 in 0.5 N HCl were added. The solution mixture was the transferred to a test tube containing 1 mL of 0.6 percent thiobarbituric acid in 0.5 M Na2 SO4, and heated in boiled water for 15 minutes. After the solution was cooled, 1 mL of the solution was taken out and mixed with 1 mL of cyclohexanone. That mixture was shaken and centrifuged, and the upper layer was taken for measurement at 549 nm (e=4.11 mM^-1 cm^-1).
# (§4) Initial velocities were measured at various concentrations of CTP (1.25-5 mM) and NeuAc (2-8 mM) for kinetic studies. The data were fitted into the sequential bi-bi substrate rate equation 3, shown below, to derive the Michaelis constants and maximum velocity (V) using a Sigma plot program from Sigma Co. [formula] […]
# [5] = test system: Nc1ccn([C@@H]2O[C@H](COP(=O)(O)OP(=O)(O)OP(=O)(O)O)[C@@H](O)[C@H]2O)c(=O)n1; assay: as above; assay type: biochemical, E. coli; conditions: other: pH 9.0, 37° C.
# Experimental: as §1, §2, §3, §4
# [6] = molecular target: α-Glucosidase (Brewer's Yeast); assay: Glycosidase inhibition, α-glucosidase (BY); assay type: biochemical; conditions: p-nitrophenyl α-D-glucoside, PIPES-NaOAc buffer pH 6.5
# From the text: (§5) Materials: All of the buffers, enzymes, and substrates were purchased from Sigma and used as received. These included piperazine-N,N'-bis (2-ethanesulfonic acid) (PIPES), sodium acetate (NaOAc), ethylenediaminetetraacetic acid (EDTA), β-D-glucosidase (from sweet almond), p-nitrophenyl β-D-glucoside, p-nitrophenyl α-D-glucosidase, p-nitrophenyl α-D-glucoside, β-N-acetyl-D-glucosaminedase, p-nitrophenyl β-N-acetyl-D-glucosaminide, α-D-mannosidase and p-nitrophenyl α-D-mannoside.
# (§6) (b) PIPES-NaOAc buffer (0.01 M PIPES, 0.2 M NaOAc and 0.01 mM EDTA, pH 6.5). This buffer was prepared according to the literature procedure [Dale et al., Biochemistry, 24:3530 (1985)].
# (d) α-D-Glucosidase: 1.5 mg of solid protein (70 units/mg) were dissolved in 1 mL PIPES-NaOAc buffer solution and used for assays without further dilution.
# (§7) (g) Substrate solutions: all substrates were dissolved in the corresponding buffer solution for enzymatic assay.
# (§8) For each inhibitor, five inhibitor concentrations, ranging from zero to three times Ki, were generally used to determine the Ki value. […] The amount of enzyme added in each assay was adjusted so that less than 10 percent of the substrate, with its lowest substrate concentration, would be consumed within 45 seconds. Since all of the substrates have p-nitrophenol as leaving group, the assays were monitored at 400 nanometers (nm), where the molecular extinction coefficient, ε, was calibrated to be 3204.5 M^-1 cm^-1 at pH 6.5. The following illustrates the detailed procedure.
# (§9) To a 1 mL disposable cuvette were added 950 microliters (μL) of the NaOAc-PIPES buffer solution, 20 μL of the inhibitor solution and 20 μL of the p-nitrophenyl β-D-glucoside solution (100 mM in PIPES-NaOAc buffer, pH 6.5). The solution was well mixed and 20 μL of the β-D-glucosidase solution were injected into the cuvette to start the reaction. The reaction was monitored at 400 nm on a Beckman DU-70 photospectrometer for 45 seconds and the initial hydrolysis rate was calculated. The same procedure was repeated with five other substrate concentrations. […]
# [7] = molecular target: β-Glucosidase (Sweet Almond); assay: Glycosidase inhibition, β-glucosidase (SA); assay type: biochemical; conditions: p-nitrophenyl β-D-glucoside, PIPES-NaOAc buffer pH 6.5
# From the text: as §5, §6
# (c) β-D-Glucosidase: The stock enzyme solution was prepared by dissolving 15 mg of solid protein (4 units/mg) in 1 mL PIPES-NaOAc buffer solution. This stock enzyme solution was diluted 5-fold for the enzymatic assay.
# as §7, §8
# as §9, with “calculated.” for “calculated. The same procedure was repeated with five other substrate concentrations.”
# [8] = molecular target: E. coli CMP-sialic acid synthetase (CMP-NeuAc synthetase, EC 2.7.7.43), native enzyme (Escherichia coli O18:K1:H7, UniProt P13266); assay: Kinetic studies of native CMP-NeuAc synthetase; conditions: pH 9.0, 37° C.
# Sequence of E. coli CMP-sialic acid synthetase (CMP-NeuAc synthetase, EC 2.7.7.43), native enzyme (P13266 whole entry): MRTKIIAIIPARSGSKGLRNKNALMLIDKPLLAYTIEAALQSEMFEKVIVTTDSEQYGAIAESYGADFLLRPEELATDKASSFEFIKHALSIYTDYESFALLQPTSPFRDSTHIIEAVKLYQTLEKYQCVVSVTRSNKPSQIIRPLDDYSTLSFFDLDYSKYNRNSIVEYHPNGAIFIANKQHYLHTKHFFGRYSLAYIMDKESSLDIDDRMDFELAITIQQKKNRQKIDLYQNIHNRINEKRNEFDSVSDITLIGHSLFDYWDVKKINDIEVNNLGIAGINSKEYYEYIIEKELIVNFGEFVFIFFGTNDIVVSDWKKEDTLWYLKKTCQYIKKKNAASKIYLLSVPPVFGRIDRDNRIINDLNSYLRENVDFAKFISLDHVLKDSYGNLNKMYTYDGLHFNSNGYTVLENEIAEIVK
# Experimental: as §10, §11, §12
molecule,measurement,setting,value
"E. coli CMP-sialic acid synthetase (CMP-NeuAc synthetase, EC 2.7.7.43), native enzyme (Escherichia coli RS218)",Km,[1],0.31 mM
OC[C@H]1NC[C@H](O)[C@@H](O)[C@@H]1O [Compound 3],inhibition of β-galactosidase,[2],Neither azasugar was an inhibitor
"C=CCO[C@@H]1O[C@H](CO)[C@@H](O[C@@H]2O[C@H](CO)[C@H](O)[C@H](O)[C@H]2O)C[C@H]1NC(C)=O [Compound 2i, Allyl β-D-galactopyranosyl-(1,4)-2-acetamido-2,3-dideoxy-β-D-glucopyranoside]",inhibitory effect,[3],did not exhibit any inhibitory effect
"OC[C@H]1NC[C@H](O)[C@@H](O)[C@@H]1O[C@@H]1O[C@H](CO)[C@H](O)[C@H](O)[C@H]1O [Compound 10a, 6-D-Galactopyranosyl-(1,4) -deoxynojirimycin]",IC50,[3]; Example 8,~40000 µM
same,IC50,"[3]; Table 1a, 14C-GDP-fucose, pH 6.2, 37° C., IC50 extrapolated from linear fit",40000 µM
"E. coli CMP-sialic acid synthetase (CMP-NeuAc synthetase, EC 2.7.7.43), modified (tagged) enzyme with C-terminal decapeptide tag, SEQ ID NO:3 (Escherichia coli RS218)",Km,[4],4.8 mM
same,kcat,[4],1.9 s⁻¹
same,Km,[5],1.99 mM
"C[C@@H]1[C@@H](O)[C@H](O)[C@@H](O)CN1C [Compound 117, (1,2R)-dimethyl-(3R,4R,5S)-trihydroxypiperidine]",Ki,[6],1780 µM
same,Ki,[7],140 µM
"OC[C@H]1O[C@@H](O[C@H]2[C@H](O)C=CO[C@@H]2CO)[C@H](O)[C@@H](O)[C@H]1O [Compound 8, P-D-Galactopyranosyl-(1,4)-D-glucal]",inhibitory effect,[3],did not exhibit any inhibitory effect
"C[C@@H]1[C@@H](O)[C@H](O)[C@@H](O)C[N@+]1(C)[O-] [Compound 118, (1,2R)-dimethyl-(3R,4R,5S)-trihydroxypiperidine oxide]",Ki,[6],6950 µM
same,Ki,[7],1490 µM
"CC(=O)N[C@H]1[C@H]([C@H](O)[C@H](O)CO)OC(O)(C(=O)O)C[C@@H]1O (stereo partly drawn) [NeuAc, N-acetylneuraminic acid]",Km,[8]; read-out: Km for NeuAc,4 mM
same,kcat,[8]; substrates NeuAc and CTP,1.8 s⁻¹
C[C@H]1NC[C@H](O)[C@@H](O)[C@@H]1O [Compound 4],inhibition of β-galactosidase,[2],Neither azasugar was an inhibitor
"C[C@H]1NC[C@H](O)[C@@H](O)[C@@H]1O [Compound 103c, (2R)-methyl-(3R,4R,5S)-trihydroxypiperidine]",Ki,[6],1560 µM
same,Ki,[7],780 µM
